The structures appear in SMILES notation.

The first assay deals with T1, Mer (Homo sapiens, UniProt Q12866).
T1 sequence (Q12866 21-999): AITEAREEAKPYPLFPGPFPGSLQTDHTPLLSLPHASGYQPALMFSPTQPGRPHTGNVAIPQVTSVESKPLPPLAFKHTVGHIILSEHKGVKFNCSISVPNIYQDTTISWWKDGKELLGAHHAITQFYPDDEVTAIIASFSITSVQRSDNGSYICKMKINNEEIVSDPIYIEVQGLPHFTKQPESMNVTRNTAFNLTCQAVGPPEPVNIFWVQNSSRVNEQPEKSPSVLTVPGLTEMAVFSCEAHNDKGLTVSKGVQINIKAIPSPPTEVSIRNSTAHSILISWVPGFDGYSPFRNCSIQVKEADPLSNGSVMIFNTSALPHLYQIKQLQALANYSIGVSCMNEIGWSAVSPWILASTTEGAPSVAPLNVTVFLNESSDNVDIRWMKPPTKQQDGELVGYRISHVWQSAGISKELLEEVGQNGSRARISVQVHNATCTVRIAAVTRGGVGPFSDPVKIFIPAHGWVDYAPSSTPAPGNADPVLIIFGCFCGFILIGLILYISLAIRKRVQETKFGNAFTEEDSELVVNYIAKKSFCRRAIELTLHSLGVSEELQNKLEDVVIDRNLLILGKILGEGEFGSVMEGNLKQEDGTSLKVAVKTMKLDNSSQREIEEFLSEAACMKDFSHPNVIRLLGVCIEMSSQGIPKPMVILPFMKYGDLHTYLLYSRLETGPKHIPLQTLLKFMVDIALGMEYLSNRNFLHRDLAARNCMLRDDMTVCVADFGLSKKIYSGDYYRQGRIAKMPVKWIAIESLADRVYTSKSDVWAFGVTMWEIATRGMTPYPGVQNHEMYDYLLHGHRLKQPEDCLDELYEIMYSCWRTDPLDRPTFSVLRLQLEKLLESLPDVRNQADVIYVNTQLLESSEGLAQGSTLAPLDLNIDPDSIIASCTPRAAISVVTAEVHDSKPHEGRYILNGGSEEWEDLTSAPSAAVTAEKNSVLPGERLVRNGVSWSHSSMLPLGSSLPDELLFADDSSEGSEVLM
Put plainly: Mer kinase inhibition IC50. The class given is biochemical. The note with it: Table 3; read-out: Mer IC50.
On to `CN1CCN(Cc2ccc(-c3cnc(Nc4ccc(C#Cc5cc(NC(=O)C6CCCC6)ccn5)cc4)nc3N[C@H]3CC[C@H](O)CC3)cc2)CC1` [UNC3872A], for which the IC50 was below 10 nM.

`CN1CCN(Cc2ccc(-c3cnc(Nc4ccc(C#Cc5cc(NC(=O)C6CCCCC6)ccn5)cc4)nc3N[C@H]3CC[C@H](O)CC3)cc2)CC1` [UNC3873A]: the IC50 is below 10 nM.

Regarding `CC(=O)Nc1ccnc(C#Cc2ccc(Nc3ncc(-c4ccc(CN5CCN(C)CC5)cc4)c(N[C@H]4CC[C@H](O)CC4)n3)cc2)c1` [UNC3874A], the IC50 lay within 10 to 100 nM.

Take `CC(C)C(=O)Nc1ccnc(C#Cc2ccc(Nc3ncc(-c4ccc(CN5CCN(C)CC5)cc4)c(N[C@H]4CC[C@H](O)CC4)n3)c(F)c2)c1` [UNC4040A]: the IC50 is below 10 nM.

For `CC(C)C(=O)Nc1ccnc(C#Cc2ccc(Nc3ncc(-c4ccccc4)c(N[C@H]4CC[C@H](O)CC4)n3)cc2)c1` [UNC4041A], the IC50 is 10 to 100 nM.

Turning to `CC(C)C(=O)Nc1ccnc(C#Cc2ccc(Nc3ncc(-c4ccccn4)c(N[C@H]4CC[C@H](O)CC4)n3)cc2)c1` [UNC4042A], the IC50 is below 10 nM.

As for `CC(C)C(=O)Nc1ccnc(C#Cc2ccc(Nc3ncc(-c4ccncc4)c(N[C@H]4CC[C@H](O)CC4)n3)cc2)c1` [UNC4043A], the IC50 was below 10 nM.

As to `Cc1cc(Nc2ncc(-c3ccc(CN4CCN(C)CC4)cc3)c(N[C@H]3CC[C@H](O)CC3)n2)ccc1C#Cc1cc(NC(=O)C(C)C)ccn1` [UNC4044A], the IC50 was below 10 nM.

Regarding `CC(C)C(=O)Nc1ccnc(C#Cc2ccc(Nc3ncc(-c4ccc(CN5CCN(C)CC5)cc4)c(N[C@H]4CC[C@H](O)CC4)n3)cc2F)c1` [UNC4045A], the half-inhibitory concentration (IC50) was below 10 nM.

As for `CC(C)C(=O)Nc1ccnc(C#Cc2ccc(Nc3ncc(-c4ccc(CN5CCN(C)CC5)cc4)c(N[C@H]4CC[C@H](O)CC4)n3)c(Cl)c2)c1` [UNC4046A], the IC50 lay in the range of 10 to 100 nM.

On to `CC(C)C(=O)Nc1ccnc(C#Cc2ccc(Nc3ncc(-c4ccc(CN5CCN(C)CC5)cc4)c(N[C@H]4CC[C@H](O)CC4)n3)cc2Cl)c1` [UNC4047A], for which the IC50 was below 10 nM.

The next assay deals with T2, Axl (Homo sapiens, UniProt P30530).
T2 sequence (P30530 26-894): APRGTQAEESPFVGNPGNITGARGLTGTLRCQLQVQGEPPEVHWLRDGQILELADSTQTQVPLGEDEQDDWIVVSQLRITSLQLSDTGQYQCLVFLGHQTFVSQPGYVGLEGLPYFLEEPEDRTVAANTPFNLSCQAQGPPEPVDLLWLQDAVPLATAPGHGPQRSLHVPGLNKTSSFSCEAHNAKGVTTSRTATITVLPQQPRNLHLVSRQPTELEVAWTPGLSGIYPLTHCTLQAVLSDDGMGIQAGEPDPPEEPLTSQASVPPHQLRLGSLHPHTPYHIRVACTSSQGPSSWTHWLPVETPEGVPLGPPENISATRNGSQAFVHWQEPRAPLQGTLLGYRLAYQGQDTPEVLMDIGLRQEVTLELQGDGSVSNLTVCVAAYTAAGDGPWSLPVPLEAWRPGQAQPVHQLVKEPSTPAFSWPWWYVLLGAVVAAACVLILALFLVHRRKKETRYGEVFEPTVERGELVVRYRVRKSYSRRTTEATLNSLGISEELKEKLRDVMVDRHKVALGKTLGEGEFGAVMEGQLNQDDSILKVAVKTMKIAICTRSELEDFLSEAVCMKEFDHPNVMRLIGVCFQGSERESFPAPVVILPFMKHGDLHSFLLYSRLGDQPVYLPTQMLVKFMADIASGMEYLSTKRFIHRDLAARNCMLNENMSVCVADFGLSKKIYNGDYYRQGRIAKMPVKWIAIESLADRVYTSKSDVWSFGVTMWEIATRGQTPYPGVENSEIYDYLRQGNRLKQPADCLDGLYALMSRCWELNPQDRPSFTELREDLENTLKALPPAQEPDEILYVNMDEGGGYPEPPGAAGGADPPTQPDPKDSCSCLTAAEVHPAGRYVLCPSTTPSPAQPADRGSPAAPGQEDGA
Put plainly: Axl kinase inhibition IC50. In kind it is biochemical. The note with it: Table 1.
For `O[C@H]1CC[C@H](Nc2nc(Nc3ccccc3)ncc2-c2ccccn2)CC1` [UNC3029A], the IC50 lay in the range of 100 to 1000 nM.

Still in this assay, the particulars now being: Table 3.
`CN1CCN(Cc2ccc(-c3cnc(Nc4ccc(C#Cc5cc(NC(=O)C6CCCC6)ccn5)cc4)nc3N[C@H]3CC[C@H](O)CC3)cc2)CC1` [UNC3872A] showed an IC50 below 10 nM.

The compound `CN1CCN(Cc2ccc(-c3cnc(Nc4ccc(C#Cc5cc(NC(=O)C6CCCCC6)ccn5)cc4)nc3N[C@H]3CC[C@H](O)CC3)cc2)CC1` [UNC3873A] displayed a 50% inhibitory concentration (IC50) of 10 to 100 nM.

`CC(=O)Nc1ccnc(C#Cc2ccc(Nc3ncc(-c4ccc(CN5CCN(C)CC5)cc4)c(N[C@H]4CC[C@H](O)CC4)n3)cc2)c1` [UNC3874A] registered an IC50 of 100 to 1000 nM.

In the case of `CC(C)C(=O)Nc1ccnc(C#Cc2ccc(Nc3ncc(-c4ccc(CN5CCN(C)CC5)cc4)c(N[C@H]4CC[C@H](O)CC4)n3)c(F)c2)c1` [UNC4040A], the IC50 lay in the range of 100 to 1000 nM.

Compound `CC(C)C(=O)Nc1ccnc(C#Cc2ccc(Nc3ncc(-c4ccccc4)c(N[C@H]4CC[C@H](O)CC4)n3)cc2)c1` [UNC4041A] registered a concentration for half-maximal inhibition (IC50) of 100 to 1000 nM.

`CC(C)C(=O)Nc1ccnc(C#Cc2ccc(Nc3ncc(-c4ccccn4)c(N[C@H]4CC[C@H](O)CC4)n3)cc2)c1` [UNC4042A] registered an IC50 below 10 nM.

In turn, `CC(C)C(=O)Nc1ccnc(C#Cc2ccc(Nc3ncc(-c4ccncc4)c(N[C@H]4CC[C@H](O)CC4)n3)cc2)c1` [UNC4043A] returned an IC50 of 10 to 100 nM.

For the compound `Cc1cc(Nc2ncc(-c3ccc(CN4CCN(C)CC4)cc3)c(N[C@H]3CC[C@H](O)CC3)n2)ccc1C#Cc1cc(NC(=O)C(C)C)ccn1` [UNC4044A], the IC50 was below 10 nM.

`CC(C)C(=O)Nc1ccnc(C#Cc2ccc(Nc3ncc(-c4ccc(CN5CCN(C)CC5)cc4)c(N[C@H]4CC[C@H](O)CC4)n3)cc2F)c1` [UNC4045A]: the concentration for half-maximal inhibition (IC50) is below 10 nM.

In turn, `CC(C)C(=O)Nc1ccnc(C#Cc2ccc(Nc3ncc(-c4ccc(CN5CCN(C)CC5)cc4)c(N[C@H]4CC[C@H](O)CC4)n3)c(Cl)c2)c1` [UNC4046A] displayed an IC50 below 10 nM.

As for `CC(C)C(=O)Nc1ccnc(C#Cc2ccc(Nc3ncc(-c4ccc(CN5CCN(C)CC5)cc4)c(N[C@H]4CC[C@H](O)CC4)n3)cc2Cl)c1` [UNC4047A], the IC50 was below 10 nM.

The target in the next assay is T3, Tyro3 (Homo sapiens, UniProt Q06418).
T3 sequence (Q06418 41-890): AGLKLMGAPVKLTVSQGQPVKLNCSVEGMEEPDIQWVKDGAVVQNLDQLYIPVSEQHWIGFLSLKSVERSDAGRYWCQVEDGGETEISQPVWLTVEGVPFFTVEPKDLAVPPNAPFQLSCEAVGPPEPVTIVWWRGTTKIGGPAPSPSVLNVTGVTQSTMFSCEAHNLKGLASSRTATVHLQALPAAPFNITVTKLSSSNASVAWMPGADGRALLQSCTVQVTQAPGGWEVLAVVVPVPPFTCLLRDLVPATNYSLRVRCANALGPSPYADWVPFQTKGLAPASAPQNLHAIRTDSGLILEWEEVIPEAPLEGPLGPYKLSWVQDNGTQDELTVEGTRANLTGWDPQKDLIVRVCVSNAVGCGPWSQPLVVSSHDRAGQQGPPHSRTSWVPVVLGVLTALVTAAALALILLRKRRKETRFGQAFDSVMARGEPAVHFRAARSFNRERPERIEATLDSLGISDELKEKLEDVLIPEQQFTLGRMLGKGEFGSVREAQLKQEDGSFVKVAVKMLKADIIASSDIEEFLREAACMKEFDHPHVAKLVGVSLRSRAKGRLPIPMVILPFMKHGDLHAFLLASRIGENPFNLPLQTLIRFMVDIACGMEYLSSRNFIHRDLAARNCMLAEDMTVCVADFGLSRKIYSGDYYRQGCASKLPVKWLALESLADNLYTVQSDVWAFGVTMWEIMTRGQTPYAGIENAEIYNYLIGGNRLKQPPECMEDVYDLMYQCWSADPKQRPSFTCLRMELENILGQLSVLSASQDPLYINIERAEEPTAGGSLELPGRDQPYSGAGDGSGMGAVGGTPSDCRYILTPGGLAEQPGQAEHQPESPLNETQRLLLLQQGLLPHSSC
The assay is described as follows: Tyro3 kinase inhibition IC50. In kind it is biochemical. To be noted: Table 1; read-out: Tyro3 IC50.
Consider `O[C@H]1CC[C@H](Nc2nc(Nc3ccccc3)ncc2-c2ccccn2)CC1` [UNC3029A], for which the IC50 was below 10 nM.

The assay is the same for the next values; noted with them: Table 3; read-out: Tyro3 IC50.
As to `CN1CCN(Cc2ccc(-c3cnc(Nc4ccc(C#Cc5cc(NC(=O)C6CCCC6)ccn5)cc4)nc3N[C@H]3CC[C@H](O)CC3)cc2)CC1` [UNC3872A], the IC50 is below 10 nM.

In the case of `CN1CCN(Cc2ccc(-c3cnc(Nc4ccc(C#Cc5cc(NC(=O)C6CCCCC6)ccn5)cc4)nc3N[C@H]3CC[C@H](O)CC3)cc2)CC1` [UNC3873A], the IC50 was 10 to 100 nM.

As to `CC(=O)Nc1ccnc(C#Cc2ccc(Nc3ncc(-c4ccc(CN5CCN(C)CC5)cc4)c(N[C@H]4CC[C@H](O)CC4)n3)cc2)c1` [UNC3874A], the IC50 lay in the range of 10 to 100 nM.

On to `CC(C)C(=O)Nc1ccnc(C#Cc2ccc(Nc3ncc(-c4ccc(CN5CCN(C)CC5)cc4)c(N[C@H]4CC[C@H](O)CC4)n3)c(F)c2)c1` [UNC4040A], for which the half-maximal inhibitory concentration (IC50) was below 10 nM.

As for `CC(C)C(=O)Nc1ccnc(C#Cc2ccc(Nc3ncc(-c4ccccc4)c(N[C@H]4CC[C@H](O)CC4)n3)cc2)c1` [UNC4041A], the IC50 was 10 to 100 nM.

With `CC(C)C(=O)Nc1ccnc(C#Cc2ccc(Nc3ncc(-c4ccccn4)c(N[C@H]4CC[C@H](O)CC4)n3)cc2)c1` [UNC4042A], the IC50 was below 10 nM.

On to `CC(C)C(=O)Nc1ccnc(C#Cc2ccc(Nc3ncc(-c4ccncc4)c(N[C@H]4CC[C@H](O)CC4)n3)cc2)c1` [UNC4043A], for which the IC50 is below 10 nM.

As for `Cc1cc(Nc2ncc(-c3ccc(CN4CCN(C)CC4)cc3)c(N[C@H]3CC[C@H](O)CC3)n2)ccc1C#Cc1cc(NC(=O)C(C)C)ccn1` [UNC4044A], the IC50 is below 10 nM.

As to `CC(C)C(=O)Nc1ccnc(C#Cc2ccc(Nc3ncc(-c4ccc(CN5CCN(C)CC5)cc4)c(N[C@H]4CC[C@H](O)CC4)n3)cc2F)c1` [UNC4045A], the half-maximal inhibitory concentration (IC50) was below 10 nM.

`CC(C)C(=O)Nc1ccnc(C#Cc2ccc(Nc3ncc(-c4ccc(CN5CCN(C)CC5)cc4)c(N[C@H]4CC[C@H](O)CC4)n3)c(Cl)c2)c1` [UNC4046A]: the IC50 fell in the range of 10 to 100 nM.

Regarding `CC(C)C(=O)Nc1ccnc(C#Cc2ccc(Nc3ncc(-c4ccc(CN5CCN(C)CC5)cc4)c(N[C@H]4CC[C@H](O)CC4)n3)cc2Cl)c1` [UNC4047A], the IC50 was below 10 nM.

For the origin of these results see patent US10526309B2, “Pan-TAM inhibitors and Mer/Axl dual inhibitors” (The University of North Carolina at Chapel Hill, priority 2015, dated 2020).
